Assays:
[1] = test system: TPA-treated mouse ears (erythema); test: Mouse ear model of TPA-induced contact inflammation: erythema inhibition (Δa* redness, chroma meter); assay type: in vivo; details: for erythema inhibition (statement in words): in vivo activity, no dose stated; for % Inhibition Erythema: TPA-treated mouse ear, 24 hours
Text: (§1) G. et al., Anti-inflammatory Drugs, Clin. Pharmacol. Ther. 16, 900-4 (1974); Young et al., Tachyphylaxis in 12-Otetradecanoylphorbolacetate-and Arachidonic Acid-Induced Ear Edema; J. Invest. Dermatol. 80:48-52, (1983); Tramposch et al., In Vivo Models of Inflammation, (Morgan D W, Marshall L A eds), Birkhaüser Verlag: Basel, pp 179-204, 1999; and Gordon et al., Topical N-Acetyl-S-Farnesyl-L-Cysteine Inhibits Mouse Skin Inflammation, and Unlike Dexamethasone, Its Effects Are Restricted to the Application Site, J. Invest. Dermatol., 128(3):643-54, 2008 March)]. Moreover, the mouse ear model has been used by various groups to identify and compare members of differing classes of anti-inflammatory agents with multiple mechanisms of action (reviewed in Tramposch et al., 1999, supra).
Another well documented biomarker of skin inflammation is skin redness, termed erythema, which is caused by capillary congestion and dilation in response to various chemical and environmental insults (see Denig, N. I. et al., Irritant Contact Dermatitis. Clues to Causes, Clinical Characteristics, and Control, Postgrad Med., May (1998); 103(5):199-200, 207-8, 212-3). […] The percent inhibition of erythema was determined by taking the average Δa* redness value of compound-treated ears and dividing it by the average Δa* value of 12 ears that only received TPA and subtracting that value from 100%. These values were corrected for the Δa* value of non TPA-treated mouse ears of littermate controls. […] Gordon et al., “Topical N-acetyl-5-farnesyl-L-cysteine Inhibits Mouse Skin Inflammation, and Unlike Dexamethasone, its Effects Are Restricted to the Application Site”, J. Invest. Derm., Vol. 128 pp. 643-654 (2008).

[2] = test system: TPA-treated mouse ears (edema); test: Mouse ear model of TPA-induced contact inflammation: edema inhibition (ear thickness); assay type: in vivo; details: for edema inhibition (statement in words): in vivo activity, no dose stated; for % Inhibition Edema: TPA-treated mouse ear, 24 hours
Text: as §1
The protocol for inducing in vivo acute contact inflammation on the ears of live mice has been described elsewhere (reviewed in Tramposch, 1999, supra). In brief, mice were sedated and their ears were treated with 1.2 μg/20 uL TPA (i.e., tetradecanoylphorbol-13-acetate). […] After 24 hours, the mice were sacrificed and edema was measured by taking micrometer readings of each ear. The percent inhibition of edema was determined by taking the average ear thickness of compound-treated ears and dividing it by the average thickness of 12 ears that only received TPA and subtracting that value from 100%. These values were corrected for the thickness of normal, non TPA-treated mouse ears of littermate controls. […] ED50 values were calculated as described in Gordon et al., “Topical N-acetyl-5-farnesyl-L-cysteine Inhibits Mouse Skin Inflammation, and Unlike Dexamethasone, its Effects Are Restricted to the Application Site”, J. Invest. Derm., Vol. 128 pp. 643-654 (2008).

[3] = test system: dermal neutrophil infiltration, neutrophil marker myeloperoxidase (MPO); test: Mouse ear model of TPA-induced contact inflammation: MPO inhibition (dermal neutrophil infiltration); assay type: in vivo; details: for MPO (myeloperoxidase) inhibition (statement in words): in vivo activity, no dose stated; for % Inhibition MPO: TPA-treated mouse ear, 24 hours
Text: as §1
To assay for inhibition of dermal neutrophil infiltration by S-isoprenyl and S-farnesyl cysteine compounds, a standard method was used (see Bradley et al., 1982, supra; Young et al., 1983, supra; De Young et al, “Edema and Cell Infiltration in the Phorbol Ester-treated Mouse Ear are Temporally Separate and can be Differentially Modulated by Pharmacologic Agents”, Agents Actions, 26(3-4): 335-41 (March 1989); and Rao et al. (1993) Comparative Evaluation of Arachidonic Acid (AA)-and Tetradecanoylphorbol Acetate (TPA)-Induced Dermal Inflammation, Inflammation 17:723-41). Briefly, we homogenized 6 mm biopsy punches taken from both compound-treated ears as well as TPA-treated and non-treated control groups. We quantitated the levels of MPO by a calorimetric reaction that was measured spectrophotometrically. The percent inhibition of neutrophil infiltration by each S-isoprenyl and S-farnesyl cysteine compound was determined by comparing the average MPO levels in the presence and absence of these compounds. […] Gordon et al., “Topical N-acetyl-5-farnesyl-L-cysteine Inhibits Mouse Skin Inflammation, and Unlike Dexamethasone, its Effects Are Restricted to the Application Site”, J. Invest. Derm., Vol. 128 pp. 643-654 (2008).

[4] = test system: neutrophil, macrophage, and platelet responses; details: in vitro, background statement; cited from earlier work
[5] = molecular target: membrane-associated isoprenyl-5-cysteinyl methyltransferase (Homo sapiens, UniProt O60725); details: background statement; cited from earlier work
membrane-associated isoprenyl-5-cysteinyl methyltransferase, sequence (O60725 whole entry): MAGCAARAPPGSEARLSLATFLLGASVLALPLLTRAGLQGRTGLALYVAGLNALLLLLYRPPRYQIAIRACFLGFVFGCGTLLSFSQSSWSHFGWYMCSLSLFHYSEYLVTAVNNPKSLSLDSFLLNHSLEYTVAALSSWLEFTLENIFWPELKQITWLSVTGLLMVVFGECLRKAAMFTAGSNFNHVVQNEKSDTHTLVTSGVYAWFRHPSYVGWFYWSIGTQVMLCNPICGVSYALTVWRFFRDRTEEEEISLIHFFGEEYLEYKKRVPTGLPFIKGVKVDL

dermal inflammation = details: mice, background statement; cited from earlier work

Row | Compound | erythema inhibition (statement in words) [1] | edema inhibition (statement in words) [2] | % Inhibition Edema ([2]; topical dose 0.8 mg/20 μL) | MPO (myeloperoxidase) inhibition (statement in words) [3] | % Inhibition MPO ([3]; topical dose 0.8 mg/20 μL) | % Inhibition Erythema ([1]; topical dose 0.8 mg/20 μL) | block of neutrophil, macrophage and platelet responses [4] | inhibition of isoprenyl-S-cysteinyl methyltransferase (mode) [5] | reduction of dermal inflammation (dermal inflammation) | % Inhibition Erythema ([1]; topical dose 0.2 mg/20 μL) | % Inhibition Edema ([2]; topical dose 0.2 mg/20 μL) | % Inhibition MPO ([3]; topical dose 0.2 mg/20 μL)
1 | CC(=O)N[C@@H](CSC/C=C(\C)CC/C=C(\C)CCC=C(C)C)C(=O)NN [Compound A] | erythema inhibition | edema inhibition | — 42.36 ± 1.99% | MPO (myeloperoxidase) inhibition | — 93.53 ± 1.13% |  |  |  |  |  |  | 
2 | CC(=O)NNC(=O)[C@H](CSC/C=C(\C)CC/C=C(\C)CCC=C(C)C)NC(C)=O [Compound D] | erythema inhibition |  |  | MPO (myeloperoxidase) inhibition |  |  |  |  |  |  |  | 
3 | CC(=O)N[C@@H](CSC/C=C(\C)CC/C=C(\C)CCC=C(C)C)C(=O)NNc1ccccc1 [Compound C] | erythema inhibition | edema inhibition |  | MPO (myeloperoxidase) inhibition |  | — 13.41 ± 11.92% |  |  |  |  |  | 
4 | CC(=O)N[C@@H](CSCC=C(C)CCC=C(C)CCC=C(C)C)C(=O)O [AFC, N-acetyl-5-farnesyl-L-cysteine] |  |  |  |  |  |  | block some neutrophil, macrophage, and platelet responses in vitro | competitive inhibitor | effectively reduces dermal inflammation in mice |  |  | 
5 | CC(=O)N[C@@H](CSC/C=C(\C)CC/C=C(\C)CCC=C(C)C)C(=O)NO [Compound B] | erythema inhibition | edema inhibition | — 33.64 ± 3.03% | MPO (myeloperoxidase) inhibition | — 87.45 ± 1.37% |  |  |  |  |  |  | 
6 | CC(C)=CCC/C(C)=C/CC/C(C)=C/CSC[C@H](NC(=O)CCC(F)(F)F)C(=O)NN [Compound F] | erythema inhibition | edema inhibition |  | MPO (myeloperoxidase) inhibition |  |  |  |  |  | 11.04 ± 7.28 — % | 7.86 ± 0.98 — % | 21.33 ± 12.68 — %
7 | CNNC(=O)[C@H](CSC/C=C(\C)CC/C=C(\C)CCC=C(C)C)NC(C)=O [Compound E] | erythema inhibition | edema inhibition | — 5.85 ± 7.02% | MPO (myeloperoxidase) inhibition |  | — 7.68 ± 8.15% |  |  |  |  |  | 

Reference: patent US20090170917A1, “Acid Mimic Compounds for the Inhibition of Isoprenyl-S-Cysteinyl Methyltransferase” (priority 2007, published 2009)
